Assay results published in article PMC9939733 (The Journal of Biological Chemistry, 2023).
Changes are numbered by the printed parent chain. Where “and” joins values, the source holds several entries; their conditions need not be identical. Equal values may be shown once.

Assays:
Format in all cases: biochemical
WT IDH2 [1] = target: T1, WT IDH2 (Homo sapiens, UniProt P48735); assay: Absorbance assay, substrate activity in the absence of DL-isocitrate; details: no DL-isocitrate; […] test compound, 75 μM NADP+, 2.0 nM WT IDH2; compared to DL-isocitrate
T1 construct: made in house; host or cells: Sf21 insect cells (cell pellets prepared at Evotec)
T1 sequence (P48735 40-452): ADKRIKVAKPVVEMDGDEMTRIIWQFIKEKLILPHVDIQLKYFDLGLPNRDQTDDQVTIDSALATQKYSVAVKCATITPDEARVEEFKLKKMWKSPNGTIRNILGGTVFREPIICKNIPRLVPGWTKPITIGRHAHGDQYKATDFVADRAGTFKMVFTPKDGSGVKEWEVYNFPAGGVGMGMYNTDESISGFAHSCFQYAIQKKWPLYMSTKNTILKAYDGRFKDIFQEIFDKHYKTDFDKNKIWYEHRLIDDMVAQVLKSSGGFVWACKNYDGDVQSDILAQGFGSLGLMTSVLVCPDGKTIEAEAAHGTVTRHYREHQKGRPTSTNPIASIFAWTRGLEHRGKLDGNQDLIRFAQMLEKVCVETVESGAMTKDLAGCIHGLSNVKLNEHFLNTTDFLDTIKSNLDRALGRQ
Outline: (§1)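 Quadruplicate technical repeats are run. Reaction start is by reagent dispenser.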

WT IDH1 [2] = target: T2, WT IDH1 (Homo sapiens, UniProt O75874); assay: as above; details: no DL-isocitrate; […] test compound, 75 μM NADP+, 2.0 nM WT IDH1; compared to DL-isocitrate
T2 construct: made in house; host or cells: Escherichia coli BL21(DE3) pLyS
Outline: as §1

R132H IDH1 [3] = target: T3, R132H IDH1 (Homo sapiens, UniProt O75874, R132H); assay: Steady-state kinetics, absorbance assay; set-up: made in house; host or cells: Escherichia coli BL21(DE3) pLyS; details: for Kmapp / kcatapp: 0.03 μM enzyme, 50 μM NADPH, 20 mM MgCl2, pH 8.0
Experimental: (§2) Compounds were dispensed using a CyBio SDW-CW CyBi-Well Simultaneous Pipettor and assay started using a ThermoFisher Multidrop Combi reagent dispenser.
(§3) Reactions were performed as technical duplicates, and all assays were carried out in two independent duplicates.
Target sequence in this assay (O75874 whole entry R132H): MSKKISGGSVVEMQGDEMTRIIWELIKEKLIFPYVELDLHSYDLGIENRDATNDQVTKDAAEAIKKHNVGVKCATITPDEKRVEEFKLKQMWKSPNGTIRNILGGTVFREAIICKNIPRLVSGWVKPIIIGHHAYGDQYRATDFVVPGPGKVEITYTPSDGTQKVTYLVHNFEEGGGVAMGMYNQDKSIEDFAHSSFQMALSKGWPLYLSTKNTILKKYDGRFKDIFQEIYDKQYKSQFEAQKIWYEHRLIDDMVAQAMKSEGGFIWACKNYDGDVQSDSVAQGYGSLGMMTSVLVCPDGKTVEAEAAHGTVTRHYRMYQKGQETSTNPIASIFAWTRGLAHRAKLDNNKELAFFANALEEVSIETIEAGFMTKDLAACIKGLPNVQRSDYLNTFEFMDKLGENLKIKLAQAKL

R132H IDH1 [4] = target: T3, R132H IDH1; assay: Absorbance assay, variant activity in the presence of equimolar 2OG (inhibition screen); set-up: made in house; host or cells: Escherichia coli BL21(DE3) pLyS; details: […] 2OG and […] test compound, 0.03 μM R132H IDH1, 50 μM NADPH
Outline: as §1
Target sequence in this assay (O75874 whole entry R132H): as above

R172K IDH2 [5] = target: T4, R172K IDH2 (Homo sapiens, UniProt P48735, R172K); assay: Steady-state kinetics, absorbance assay; details: 0.03 μM enzyme, 50 μM NADPH, 20 mM MgCl2, pH 8.0
T4 construct: made in house; host or cells: Sf21 insect cells (cell pellets prepared at Evotec)
T4 sequence (P48735 40-452 R172K): T1 sequence (P48735 40-452) with R133K
Experimental: as §2, §3

R140Q IDH2 [6] = target: T5, R140Q IDH2 (Homo sapiens, UniProt P48735, R140Q); assay: Steady-state kinetics, absorbance assay; details: 0.03 μM enzyme, 50 μM NADPH, 20 mM MgCl2, pH 8.0
T5 construct: made in house; host or cells: Sf21 insect cells (cell pellets prepared at Evotec)
T5 sequence (P48735 40-452 R140Q): T1 sequence (P48735 40-452) with R101Q
Experimental: as §2, §3

R132C/S280F IDH1 = target: T6, R132C/S280F IDH1 (Homo sapiens, UniProt O75874, R132C/S280F); assay: Steady-state kinetics, NADPH turnover assay
T6 construct: made in house
Experimental: independent runs, each composed of technical duplicates (n = 2; mean ± SD); c) R132C/S280F IDH1 assays
monitoring NADPH turnover were performed as reported (3). […]

R172K IDH2 [7] = target: T4, R172K IDH2; assay: Absorbance assay, variant activity in the presence of equimolar 2OG (inhibition screen); details: 1.0 mM 2OG and 1.0 mM test compound, 0.03 μM R172K IDH2, 50 μM NADPH
Outline: as §1

R140Q IDH2 [8] = target: T5, R140Q IDH2; assay: as above; details: 6.0 mM 2OG and 6.0 mM test compound, 0.03 μM R140Q IDH2, 50 μM NADPH
Outline: as §1

WT IDH2 [9] = target: T1, WT IDH2; assay: Absorbance assay, WT activity in the presence of equimolar DL-isocitrate (inhibition); details: […] isocitrate and […] test compound, 75 μM NADP+, 2.0 nM WT IDH2
Outline: as §1

WT IDH1 [10] = target: T2, WT IDH1; assay: as above; details: […] isocitrate and […] test compound, 75 μM NADP+, 2.0 nM WT IDH1
Outline: as §1

R132H IDH1 [11] = target: T3, R132H IDH1; assay: Electrochemical assay (FNR+R132H IDH1)@ITO/PGE electrode; set-up: made in house; host or cells: Escherichia coli BL21(DE3) pLyS (IDH1 R132H); details: for predicted change in catalytic rate: simulated from experimental Km and vmax, if 500 μM substrate consumed at the electrode-solution interface per scan
Experimental: Assays were carried out in an anaerobic glovebox (Glove Box Technology) under a nitrogen atmosphere. A potentiostat (Autolab PGSTAT 10) running on Nova software was used for all experiments. As previously described, the electrochemical apparatus included an Autolab electrode rotator, a two-chamber custom-made glass electrochemical cell, and custom-made rotating pyrolytic graphite edge (PGE) electrodes ([55]). Platinum wire was used as the counter electrode; it was placed in the working electrode chamber. Electrode potentials (E) were measured against a saturated calomel electrode and converted to the standard hydrogen electrode using a temperature-dependent equation (at 25 °C: ESHE = ESCE + 0.2412 V) ([55]). Nanoporous indium tin oxide (ITO) electrodes were made by electrophoretically depositing ITO nanoparticles (<50 nm, Sigma-Aldrich) onto PGE electrodes (ITO/PGE) as previously described ([55]). […] In all experiments, 0.85 nmol (homodimer basis) of IDH1 R132H was used; the amount of coloaded FNR was adjusted to achieve the desired enzyme loading ratio. Electrodes loaded with enzyme were thoroughly rinsed using buffer solution before each experiment to remove excess enzyme. […]
and controlled electrochemically under steady-state conditions (1).
Conditions: 25 °C, mixed buffer (20 […]
mM each MES, TAPS, CHES, pH 8.0), 10 mM MgCl2, 10 µM NADPH, 4 mL cell volume, (FNR+R132H IDH1)@ITO/PGE electrode, electrode area 0.06 cm2, rotated at 1000 rpm, E = –0.513 V vs SHE, enzyme loading ratios (molar): FNR/R132H IDH1; 2.5 (dimer basis).
(1 picture or pasted object on this page, not shown here)
Target sequence in this assay (O75874 2-414 R132H): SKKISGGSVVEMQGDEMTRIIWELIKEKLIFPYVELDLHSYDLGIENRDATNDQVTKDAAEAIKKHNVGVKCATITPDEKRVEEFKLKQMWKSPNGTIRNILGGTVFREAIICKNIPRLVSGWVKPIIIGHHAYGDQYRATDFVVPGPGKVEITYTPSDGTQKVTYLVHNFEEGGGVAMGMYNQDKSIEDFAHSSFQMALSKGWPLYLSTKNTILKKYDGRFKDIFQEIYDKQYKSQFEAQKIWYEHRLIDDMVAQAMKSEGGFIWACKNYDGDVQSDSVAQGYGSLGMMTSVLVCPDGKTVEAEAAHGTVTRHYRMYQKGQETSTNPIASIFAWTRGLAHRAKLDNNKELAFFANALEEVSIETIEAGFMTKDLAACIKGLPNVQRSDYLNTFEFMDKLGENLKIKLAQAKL

T2 sequence (O75874 whole entry): as the sequence (O75874 whole entry R132H) above, with H132R counted along it
T6 sequence (O75874 whole entry R132C/S280F): as the sequence (O75874 whole entry R132H) above, with H132C, S280F counted along it

Row | activity [%] (%-substrate conversion after 20 min incubation) (WT IDH2 [1]) | activity [%] (%-substrate conversion after 20 min incubation) (WT IDH1 [2]) | Kmapp (R132H IDH1 [3]) [mM] | kcatapp (R132H IDH1 [3]) [s⁻¹] | activity [%] (%-substrate conversion after 20 min incubation) (R132H IDH1 [4]) | Kmapp (R172K IDH2 [5]) [mM] | kcatapp (R172K IDH2 [5]) | Kmapp (R140Q IDH2 [6]) | kcatapp (R140Q IDH2 [6]) [s⁻¹] | Kmapp (R132C/S280F IDH1) [mM] | kcatapp (R132C/S280F IDH1) [s⁻¹] | activity [%] (%-substrate conversion after 20 min incubation) (R172K IDH2 [7]) | activity [%] (%-substrate conversion after 20 min incubation) (R140Q IDH2 [8]) | activity [%] (%-substrate conversion after 20 min incubation) (WT IDH2 [9]) | activity [%] (%-substrate conversion after 20 min incubation) (WT IDH1 [10]) | Vmax (R132H IDH1 [3]; experimental value used for Michaelis-Menten simulation, Fig. 3H) [µM/min] | decrease of R132H IDH1 faradaic 'coupled' current during each scan (R132H IDH1 [11]; cyclic voltammetry, stationary electrode, 20 μM NADPH, 10 mM MgCl2, pH 8) [%] | predicted change in catalytic rate (R132H IDH1 [11]) [%] | Vmax (predicted for single enantiomer) (R132H IDH1 [3]; predicted, Fig. 3H simulation) [µM/min] | SMILES
1 | < 10 | < 10 | 3.7 ± 0.1 | 6.9 ± 0.4 | 391 ± 20 | 4.2 ± 0.4 | 4.8 ± 0.2 s⁻¹ | 2.0 ± 0.8 mM and ~2.0 mM | 5.4 ± 0.3 | 0.31 ± 0.01 | 20.2 ± 0.5 | 151 ± 5 | 107 ± 4 | 97±3 | 94±1 | – | – | – | – | CC(CC(=O)O)C(=O)C(=O)O (stereo not drawn) [compound 1, 3-methyl-2OG]
2 | – | – | – | – | – | – | – | – | – | – | – | – | – | – | – | – | – | −46 | 9.6 | CC(CC(=O)C(=O)O)C(=O)O (single isomer, unassigned) [enantiopure 12]

Continued, molecule first:

Row | SMILES | activity [%] (%-substrate conversion after 20 min incubation) (WT IDH2 [1]) | activity [%] (%-substrate conversion after 20 min incubation) (WT IDH1 [2]) | Kmapp (R132H IDH1 [3]) [mM] | kcatapp (R132H IDH1 [3]) [s⁻¹] | activity [%] (%-substrate conversion after 20 min incubation) (R132H IDH1 [4]) | Kmapp (R172K IDH2 [5]) [mM] | kcatapp (R172K IDH2 [5]) | Kmapp (R140Q IDH2 [6]) | kcatapp (R140Q IDH2 [6]) [s⁻¹] | Kmapp (R132C/S280F IDH1) [mM] | kcatapp (R132C/S280F IDH1) [s⁻¹] | activity [%] (%-substrate conversion after 20 min incubation) (R172K IDH2 [7]) | activity [%] (%-substrate conversion after 20 min incubation) (R140Q IDH2 [8]) | activity [%] (%-substrate conversion after 20 min incubation) (WT IDH2 [9]) | activity [%] (%-substrate conversion after 20 min incubation) (WT IDH1 [10]) | Vmax (R132H IDH1 [3]; experimental value used for Michaelis-Menten simulation, Fig. 3H) [µM/min] | decrease of R132H IDH1 faradaic 'coupled' current during each scan (R132H IDH1 [11]; cyclic voltammetry, stationary electrode, 20 μM NADPH, 10 mM MgCl2, pH 8) [%] | predicted change in catalytic rate (R132H IDH1 [11]) [%] | Vmax (predicted for single enantiomer) (R132H IDH1 [3]; predicted, Fig. 3H simulation) [µM/min]
3 | CCCCC(CC(=O)O)C(=O)C(=O)O (stereo not drawn) [compound 4, 3-butyl-2OG] | < 10 | < 10 | 5.7 ± 3.3 | 9.2 ± 0.4 | 376 ± 21 | 16 ± 5 | 7.8 ± 1.8 s⁻¹ and ~7.8 s⁻¹ | 3.8 ± 0.8 mM and 3.8 to 7.5 mM | 9.7 ± 0.4 | 0.24 ± 0.01 | 15 ± 3 | 126 ± 3 | 753 ± 72 | 98±2 | 96±1 | – | – | – | –
4 | CC(CC(=O)C(=O)O)C(=O)O (stereo not drawn) [compound 12, 4-methyl-2OG] | < 10 | < 10 | 12 | – | 161 ± 26 | – | – | – | – | – | – | 112 ± 13 | 281 ± 4 | 100±4 | 107±4 | 9.6 | −43 | −22 | –
5 | CCCC(CC(=O)O)C(=O)C(=O)O (racemic) [compound 3] | < 10 | < 10 | – | – | 294 ± 31 | – | ~2.7 s⁻¹ | – | – | – | – | 105 ± 6 | 632 ± 68 | 96±5 | 105±5 | – | – | – | –
